Entries after “also recorded” stand apart in the source; their conditions may differ.
Tests used:
[1] = tested on: U2OS cells with DR-GFP reporter; assay: Homologous recombination assay, U2OS cells with DR-GFP reporter; format: cell-based; details: 10 μM
Procedure: Homologous recombination assay was measured in U2OS cells with DR-GFP reporter after treatment with 10 μM RI-1 and 10 μM B02. The representative of two independent experiments is presented.
HR assay was measured in U2OS cells with DR-GFP reporter after transduction with lentivirus encoding indicated shRNAs. The representative of three independent experiments is presented.

HSPCs = assay: HSPC survival with RAD51 inhibitors (cytotoxicity); format: cell-based; details: HSPCs from WT or Fancd2−/− mice, 10 μM, in vitro five days
Procedure: HSPCs from WT or Fancd2−/− mice were treated with B02 (10 μM) or RI-1 (10 μM) in vitro for five days and survival was determined.

RAD51 foci = RAD51 foci formation by immunofluorescence in MMC-treated GM6914 cells; format: cell-based; details: GM6914 (FA-A) or GM6914+FANCA cells, 1 μM MMC, 10 μM inhibitors, 6 h
Procedure: GM6914 (FA-A) cells or corrected GM6914+FANCA cells were treated with 1 μMMMC and 10 μM inhibitors for 6 h before immunofluorescence analysis. Representative images (FIG. 3E) and quantification (FIG. 3F) of RAD51 foci are shown, (Scale bar: 50 μm).

[2] = tested on: GM6914 cells (FA-A cells); assay: Traffic light reporter assay of HR and NHEJ repair events; format: cell-based; details: GM6914 cells exposed to SD-208 for 72 hrs
Text: FIGS. 4A-4B are graphs showing that TGF-β pathway inhibition affects the choice of HR versus NHEJ pathways in repairing individual DNA breakpoints in FA cells. GM6914 cells (FA-A cells) or FANCA corrected GM6914 cells with shControl or shSMAD3 were used to generate traffic light reporter system, and then were infected with GFP-donor template and I-SceI lentivirus to generate DNA breakpoints. Quantification analysis of HR and NHEJ repair events is shown. (FIG. 4B) The ratio of HR to NHEJ activity based on the data in (FIG. 4A).
Quantification of HR and NHEJ repair events in GM6914 cells exposed to SD-208 for 72 hrs as detected by traffic light reporter assay described in FIG. 4A.
FIG. 5A is a schematic of traffic light reporter assay. Endonuclease 1-SceI induces double strand break (DSB) in the restriction site. […]
FIG. 5B is a graph showing HR and NHEJ repair analyzed by traffic light reporter (TLR) system. […] HR and NHEJ repair events (GFP or mCherry positive cells) were quantified by flow cytometry.
To directly confirm that inhibition of TGF-β pathway modulates HR or NHEJ activity, we engineered an individual DNA breakpoint in FA (GM6914) cells and employed the traffic light reporter […] system which quantifies both HR and NHEJ activities (Certo et al., 2011). […]

TGFβ signaling = assay: Physiological stress (pIpC)-induced bone marrow failure in mice; details: pretreated in vivo
Text: (§1) FIG. 6A is a schematic showing that wild-type or Fancd2-deficient mice were exposed to the physiologic stress, pIpC. Mice were pretreated in vivo with either no Tgfβ inhibitor, the neutralizing antibody to Tgfβ 1, 2, 3, or the Tgfβ receptor kinase inhibitor, Galunisertib. Long-term HSCs (LT-HSCs) were isolated and subjected to functional tests.

gamma H2AX foci = assay: pIpC stress in mice, gamma H2AX foci; details: wild-type or Fancd2-deficient mice, pretreated in vivo
Text: as §1

LT-HSCs = assay: pIpC stress in mice, comet assay on LT-HSCs; details: wild-type or Fancd2-deficient mice, pretreated in vivo
Text: as §1

For O=c1c2ccccc2nc(/C=C/c2cccnc2)n1Cc1ccccc1 [B02], the HR efficiency [1] was “significantly decrease HR efficiency”, the “cytotoxicity in HSPCs (survival)” value (HSPCs) was “do not show cytotoxicity in HSPCs” and the RAD51 foci formation (RAD51 foci) was “efficiently block RAD51 foci formation”.

With Fc1ccc(Cl)cc1-c1nc(Nc2ccncc2)c2nccnc2n1 [SD208, 2-(5-Chloro-2-fluorophenyl)-4-[(4-pyridyl)amino]pteridine] the HR repair events [2] was “increased HR activity in FA cells; also recorded: increases FIR events” and the NHEJ repair events [2] was “decreases NHEJ events”.

For Cc1cccc(-c2nn3c(c2-c2ccnc4ccc(C(N)=O)cc24)CCC3)n1 [Galunisertib, 4-[2-(6-methylpyridin-2-yl)-5,6-dihydro-4H-pyrrolo[1,2-b]pyrazol-3-yl]quinoline-6-carboxamide], the “physiological stress-induced bone marrow failure” value (TGFβ signaling) was “rescues physiological stress-induced bone marrow failure in mice”, the “pIpC-induced DNA damage, gamma H2AX foci” value (gamma H2AX foci) was “rescued the pIpC-induced DNA damage” and the “pIpC-induced DNA damage in LT-HSCs, comet assay” value (LT-HSCs) was “rescued the pIpC-induced DNA damage”.

In the case of O=C1C(Cl)=C(N2CCOCC2)C(=O)N1c1ccc(Cl)c(Cl)c1 [RI-1], the HR efficiency [1] is reported as “significantly decrease HR efficiency”, the “cytotoxicity in HSPCs (survival)” value (HSPCs) is reported as “do not show cytotoxicity in HSPCs” and the RAD51 foci formation (RAD51 foci) is reported as “efficiently block RAD51 foci formation”.

— US11421218B2, “Methods for enhancing the efficiency of gene editing” (Dana-Farber Cancer Institute, Inc., priority 2016, dated 2022)
